Laboratory results as given in patent US20120148685A1, “METHODS AND COMPOSITIONS FOR TREATING INSULIN RESISTANCE, DIABETES MELLITUS TYPE 2, METABOLIC SYNDROME AND RELATED DISORDERS” (Engergy4Life AG, priority 2009, published 2012).
Marks after values point to notes of the source that are not given here.

Key:
[1] = Feed intake, body weight development and feed conversion ratio of Zucker rats fed supplemented diets; type: in vivo; details: obese (fa/fa) Zucker rats, supplemented diet fed 4 wk, means ± SD (n = 12)
Text: Zucker rats are an established model of human early-onset, hyperplastic-hypertrophic obesity and insulin resistance as well as human non-insulin dependent diabetes mellitus.
(§1) A total of 60 male, 8-10 week old, obese (fa/fa) Zucker rats (Crl:ZUC-Leprfa; Charles River, France) with an initial body weight of 358±24 (mean±SD) g were randomly assigned to five groups of twelve rats each. In addition, 12 male, 8-10 week old, heterozygous lean (fa/+) Zucker rats with an initial body weight of 271±10 g were used as a lean control group. All rats were kept individually in Macrolon cages in a room maintained at 22±1° C. and 50-60% relative humidity with lighting from 06.00 to 18.00 hours. All experimental procedures described followed established guidelines for the care and handling of laboratory animals and were approved by the local Animal Care and Use Committee.
(§2) The rats were fed semi-purified diets which were composed according to the recommendations of the American Institute of Nutrition (AIN)-93G. Five different diets were used differing in their supplementation. […] Diets were prepared by mixing the dry components and subsequent pelleting with a standard pelleting device (Kahl Laborpressanlage Typ 14-175; Reinbek, Germany). Feed was administered ad libitum, and feed intake was recorded weekly. Experimental diets were fed for 4 weeks. Water was available ad libitum from nipple drinkers during the whole experiment.

[2] = Organ weights of the rats; type: in vivo; details: obese (fa/fa) Zucker rats, supplemented diet fed 4 wk, means ± SD (n = 12)
Procedure: (§3) All rats were kept individually in Macrolon cages in a room maintained at 22±1° C. and 50-60% relative humidity with lighting from 06.00 to 18.00 hours. All experimental procedures described followed established guidelines for the care and handling of laboratory animals and were approved by the local Animal Care and Use Committee.
(§4) Five different diets were used differing in their supplementation. […] Feed was administered ad libitum, and feed intake was recorded weekly. Experimental diets were fed for 4 weeks. Water was available ad libitum from nipple drinkers during the whole experiment.

[3] = Plasma and lipoprotein lipid concentrations (triacylglycerol, cholesterol; enzymatic kits); type: in vivo, Zucker rats; details: obese (fa/fa) Zucker rats, supplemented diet 4 wk, fasted, means ± SD (n = 12)
Procedure: as §1, §2
(§5) The rats were decapitated under CO2 anesthesia in the fasted state. Whole blood was collected into EDTA polyethylene tubes (Sarstedt, Nürnbrecht, Germany). Plasma was separated from whole blood by centrifugation (1,100×g; 10 min) at 4° C. Lipoproteins [VLDL, LDL and high-density lipoproteins (HDL)] were separated by step-wise ultracentrifugation (900,000×g, 1.5 h, 4° C.; Mikro-Ultrazentrifuge, Sorvall Products, Bad Homburg, Germany). All samples were stored at −20° C. pending analysis.
Triacylglycerol and cholesterol concentrations in plasma and lipoproteins were determined using enzymatic reagent kits from Biocon (Vöhl-Marienhagen, Germany).

[4] = Fasting glucose concentration in plasma; type: in vivo, Zucker rats; details: obese (fa/fa) Zucker rats, supplemented diet 4 wk, fasted, means ± SD (n = 12)
Procedure: as §1, §2, §5
Glucose concentration in plasma was determined by an enzymatic reagent kit from Analyticon Biotechnologies (Lichtenfels, Germany).

[5] = Non-esterified fatty acids (NEFA) in plasma; type: in vivo, Zucker rats; details: obese (fa/fa) Zucker rats, supplemented diet 4 wk, fasted, means ± SD (n = 12)
Procedure: as §1, §2, §5
NEFA concentrations in plasma were determined using the NEFA kit from Wako Chemicals (Neuss, Germany).

leptin = assay: Leptin in plasma (rat ELISA); type: in vivo, Zucker rats; details: obese (fa/fa) Zucker rats, supplemented diet 4 wk, fasted, means ± SD (n = 12)
Procedure: as §1, §2, §5
(§6) Concentrations of leptin in plasma was determined by rat ELISA kits from BioVendor (Heidelberg, Germany). Concentration of high molecular weight adiponectin was determined by a rat ELISA kit from Shibayagi (Ishihara, Shibukawa, Gunma, Japan).

[6] = test system: high molecular weight adiponectin; assay: High molecular weight adiponectin in plasma (rat ELISA); type: in vivo; details: obese (fa/fa) Zucker rats, supplemented diet 4 wk, fasted, means ± SD (n = 12)
Procedure: as §1, §2, §5, §6

[7] = test system: sterol regulatory element-binding protein (SREBP)-1c; assay: Relative mRNA concentration in liver, lipogenesis: SREBP-1c; type: in vivo, Zucker rats; details: liver of obese Zucker rats, diet 4 wk, obese control = 1.00, means ± SD (n = 12)
Procedure: as §3, §4

[8] = test system: fatty acid synthase (FAS); assay: Relative mRNA concentration in liver, lipogenesis: FAS; type: in vivo, Zucker rats; details: liver of obese Zucker rats, diet 4 wk, obese control = 1.00, means ± SD (n = 12)
Procedure: as §3, §4

[9] = test system: stearoyl-CoA desaturase (SCD); assay: Relative mRNA concentration in liver, lipogenesis: SCD; type: in vivo; details: liver of obese Zucker rats, diet 4 wk, obese control = 1.00, means ± SD (n = 12)
Procedure: as §3, §4

[10] = test system: fatty acid binding protein (FABP); assay: Relative mRNA concentration in liver, fatty acid uptake: FABP; type: in vivo, Zucker rats; details: liver of obese Zucker rats, diet 4 wk, obese control = 1.00, means ± SD (n = 12)
Procedure: as §3, §4

[11] = test system: fatty acid transport protein (FATP); assay: Relative mRNA concentration in liver, fatty acid uptake: FATP; type: in vivo; details: liver of obese Zucker rats, diet 4 wk, obese control = 1.00, means ± SD (n = 12)
Procedure: as §3, §4

scavenger receptor CD36 = assay: Relative mRNA concentration in liver, fatty acid uptake: CD36; type: in vivo; details: liver of obese Zucker rats, diet 4 wk, obese control = 1.00, means ± SD (n = 12)
Procedure: as §3, §4

lipoprotein lipase (LPL) = assay: Relative mRNA concentration in liver, fatty acid uptake: LPL; type: in vivo; details: liver of obese Zucker rats, diet 4 wk, obese control = 1.00, means ± SD (n = 12)
Procedure: as §3, §4

acyl-CoA oxidase (ACO) = assay: Relative mRNA concentration in liver, fatty acid oxidation: ACO; type: in vivo; details: liver of obese Zucker rats, diet 4 wk, obese control = 1.00, means ± SD (n = 12)
Procedure: as §3, §4

[12] = test system: liver-type carnitine-palmitoyltransferase (L-CPT) I; assay: Relative mRNA concentration in liver, fatty acid oxidation: L-CPT I; type: in vivo; details: liver of obese Zucker rats, diet 4 wk, obese control = 1.00, means ± SD (n = 12)
Procedure: as §3, §4

SMILES: CC/C=C\C/C=C\C/C=C\C/C=C\C/C=C\C/C=C\CCC(=O)O [DHA, docosahexaenoic acid]
- Daily body weight gain [1]: 5.14 ± 0.60 ^a g
- Feed conversion ratio [1]: 5.01 ± 0.28 ^c g/g
- Feed intake [1]: 25.7 ± 2.9 ^ab g/d
- Final body weight [1]: 505 ± 34 ^a g
- Total body weight gain [1]: 146 ± 17 ^a g
- Absolute organ weights: Heart [2]: 1.36 ± 0.13 g
- Absolute organ weights: Kidney [2]: 2.59 ± 0.38 g
- Absolute organ weights: Liver [2]: 24.7 ± 3.7 ^a g
- Relative organ weights: Heart [2]: 2.70 ± 0.21 ^b mg/g body weight
- Relative organ weights: Kidney [2]: 5.16 ± 0.91 mg/g body weight
- Relative organ weights: Liver [2]: 48.6 ± 4.9 ^a mg/g body weight
- Cholesterol, HDL [3]: 4.51 ± 0.45 ^a mmol/L
- Cholesterol, Plasma [3]: 8.30 ± 1.00 ^a mmol/L
- Cholesterol, VLDL + LDL [3]: 3.62 ± 0.53 ^a mmol/L
- Triacylglycerols, Plasma [3]: 4.73 ± 0.98 ^bc mmol/L
- Triacylglycerols, VLDL + LDL [3]: 2.81 ± 0.52 ^b mmol/L
- Glucose in plasma [4]: 7.99 ± 0.77 ^ab mmol/L
- NEFA in plasma [5]: 2.42 ± 0.53 ^b mmol/L
- Leptin in plasma (leptin): 7.27 ± 1.09 ^a ng/mL
- Adiponectin in plasma [6]: 120 ± 22 ng/mL
- Relative mRNA concentration, SREBP-1c [7]: 0.81 ± 0.32 ^ab
- Relative mRNA concentration, FAS [8]: 0.71 ± 0.55 ^ab
- Relative mRNA concentration, SCD [9]: 1.01 ± 0.45 ^a
- Relative mRNA concentration, FABP [10]: 0.99 ± 0.19 ^a
- Relative mRNA concentration, FATP [11]: 1.07 ± 0.90
- Relative mRNA concentration, CD36 (scavenger receptor CD36): 0.91 ± 0.38 ^a
- Relative mRNA concentration, LPL (lipoprotein lipase (LPL)): 1.26 ± 0.36
- Relative mRNA concentration, ACO (acyl-CoA oxidase (ACO)): 1.27 ± 0.35
- Relative mRNA concentration, L-CPT I [12]: 1.31 ± 0.69
